Assay [1] relates to E. coli E1. Kind of assay: MIC against Veterinary Bacteria, in vitro agar dilution. The settings on record: Escherichia coli, E1, 18 h, read-out: MIC's against E. coli E1. On the technique in general: Agar dilution tests growth on a series of plates holding different concentrations.
Experimental: (§1) The activity of the compounds of the Examples against various veterinarily important bacteria, was assayed in vitro using two-fold serial dilutions in Diagnostic Sensitivity Test Agar inoculated with 10^4 organisms.
In assay [2] the test system is Staph. aureus Oxford. The description is as above. The settings on record: Staphylococcus aureus, 18 h, read-out: MIC's against Staph. aureus Oxford.
Experimental: as §1
Assay [3] concerns M. suipneumoniae NB12. Kind of assay: MIC against Mycoplasma, in vitro agar dilution. The format is cell-based. The settings on record: Mesomycoplasma hyopneumoniae, NB12, 144 h; Friis broth solidified with 0.9% agarose, 10^3 to 10^5 C.F.U., 6 days at 37°C; read-out: MIC's against M. suipneumoniae NB12.
For assay [4], the system named is M. gallisepticum S6. Put plainly: MIC against Mycoplasma, in vitro agar dilution. The format is cell-based. The settings on record: Mycoplasmoides gallisepticum, S6, 144 h; Friis broth solidified with 0.9% agarose, 10^3 to 10^5 C.F.U., 6 days at 37°C; read-out: MIC's against M. gallisepticum S6.
For assay [5], the system named is Bord. bronchiseptica B08. Put plainly: MIC against Veterinary Bacteria, in vitro agar dilution. The settings on record: Bordetella bronchiseptica, B08, 18 h, read-out: MIC's against Bord. bronchiseptica B08.
Experimental: as §1
Assay [6] concerns Staph. aureus 152 (pen. sens). The description is as above. The settings on record: Staphylococcus aureus, 18 h, read-out: MIC's against Staph. aureus 152 (pen. sens).
Experimental: as §1
The test system of assay [7] is Strep. suis (group D) SPS11. The description is as above. The settings on record: Streptococcus suis, 18 h, read-out: MIC's against Strep. suis (group D) SPS11.
Experimental: as §1
The test system of assay [8] is M. pneumoniae ATCC 15492. Kind of assay: MIC against Mycoplasma, in vitro agar dilution. It counts as cell-based. The settings on record: Mycoplasmoides pneumoniae, ATCC15492, 144 h; Friis broth solidified with 0.9% agarose, 10^3 to 10^5 C.F.U., 6 days at 37°C; read-out: MIC's against M. pneumoniae ATCC 15492.
The test system of assay [9] is M. hyorhinis ATCC 25021. Put plainly: MIC against Mycoplasma, in vitro agar dilution. The format is cell-based. The settings on record: Mesomycoplasma hyorhinis, ATCC25021, 144 h; Friis broth solidified with 0.9% agarose, 10^3 to 10^5 C.F.U., 6 days at 37°C; read-out: MIC's against M. hyorhinis ATCC 25021.
Assay [10] deals with M. hyorhinis ATCC 23234. Put plainly: MIC against Mycoplasma, in vitro agar dilution. The settings on record: Mesomycoplasma hyorhinis, ATCC23234, 144 h; Friis broth solidified with 0.9% agarose, 10^3 to 10^5 C.F.U., 6 days at 37°C; read-out: MIC's against M. hyorhinis ATCC 23234. The format is cell-based.
The subject of assay [11] is M. bovigenitalium ATCC 14173. Put plainly: MIC against Mycoplasma, in vitro agar dilution. The format is cell-based. The settings on record: 144 h; Friis broth solidified with 0.9% agarose, 10^3 to 10^5 C.F.U., 6 days at 37°C; read-out: MIC's against M. bovigenitalium ATCC 14173.
In assay [12] the test system is M. hyosynoviae ATCC 25591. Put plainly: MIC against Mycoplasma, in vitro agar dilution. The settings on record: 144 h; Friis broth solidified with 0.9% agarose, 10^3 to 10^5 C.F.U., 6 days at 37°C; read-out: MIC's against M. hyosynoviae ATCC 25591. It counts as cell-based.
Assay [13] has as its system E. coli NCTC 10418. Put plainly: MIC against Veterinary Bacteria, in vitro agar dilution. The settings on record: Escherichia coli, NCTC10418, 18 h, read-out: MIC's against E. coli NCTC 10418.
Experimental: as §1

In brackets after ≈: the same amount, converted by molar mass.

As usually defined, the MIC is the smallest concentration in the dilution series that meets the test's criterion for growth inhibition.

Consider `CCOC(=O)C(C)=C(C)CC1OCC(CC2OC2C(C)C(C)O)C(O)C1O` [Example 1, Ethyl 4-[5S-(2S,3S-epoxy-5S-hydroxy-4S-methylhexyl)-3R,4R-dihydroxytetrahydropyran-2S-yl]-2,3-dimethylbut-2(E)-enoate], for which the minimum inhibitory concentration (MIC) in [1] is greater than 80 µg/mL; in assay [2], 0.625 µg/mL (≈ 1.62 µM); in assay [3], 1 µg/mL (≈ 2.59 µM); in assay [4] it was greater than 10 µg/mL; in assay [5] it was greater than 80 µg/mL; in assay [6] it was 0.625 µg/mL (≈ 1.62 µM). Moreover, the MIC was greater than 80 µg/mL in [7]; 10 µg/mL (≈ 25.9 µM) in assay [8]; 0.5 µg/mL (≈ 1.29 µM) in assay [9]; 0.5 µg/mL (≈ 1.29 µM) in [10]; 0.05 µg/mL (≈ 0.129 µM) in assay [11]; 1 µg/mL (≈ 2.59 µM) in [12]. Moreover, the MIC in assay [13] was greater than 80 µg/mL.
With `COC(=O)C(C)=C(C)CC1OCC(CC2OC2C(C)C(C)O)C(O)C1O` [Example 2, Methyl 4-[5S-(2S,3S-epoxy-5S-hydroxy-4S-methylhexyl)-3R,4R-dihydroxytetrahydropyran-2S-yl]-2,3-dimethylbut-2(E)-enoate], the MIC is greater than 80 µg/mL in assay [1]; 5 µg/mL (≈ 13.4 µM) in assay [2]; 5 µg/mL (≈ 13.4 µM) in [3]; greater than 10 µg/mL in assay [4]; greater than 80 µg/mL in assay [5]; 5 µg/mL (≈ 13.4 µM) in assay [6]. Besides, the minimum inhibitory concentration (MIC) in assay [7] is greater than 80 µg/mL; in assay [9], 5 µg/mL (≈ 13.4 µM); in assay [10], 5 µg/mL (≈ 13.4 µM); in assay [11], 0.5 µg/mL (≈ 1.34 µM); in assay [12] it was 5 µg/mL (≈ 13.4 µM); in assay [13] it was greater than 80 µg/mL.
`CC(CC1OCC(CC2OC2C(C)C(C)O)C(O)C1O)=C(C)C(=O)OCc1cccc([N+](=O)[O-])c1` [Example 3, m-Nitrobenzyl 4-[5S-(2S,3S-epoxy-5S-hydroxy-4S-methylhexyl)-3R,4R-dihydroxytetrahydropyran-2S-yl]-2,3-di-methylbut-2(E)-enoate]: the MIC in assay [1] is greater than 80 µg/mL; in assay [2], 1.25 µg/mL (≈ 2.53 µM); in [3], 0.05 µg/mL (≈ 0.101 µM); in assay [4] it was 5 µg/mL (≈ 10.1 µM); in assay [5] it was 80 µg/mL (≈ 162 µM); in assay [6] it was 1.25 µg/mL (≈ 2.53 µM). In addition, the MIC in assay [7] worked out at 10 µg/mL (≈ 20.3 µM); in [8], 2.5 µg/mL (≈ 5.07 µM); in assay [9] it was 0.025 µg/mL (≈ 0.0507 µM); in assay [10], 0.025 µg/mL (≈ 0.0507 µM); in assay [11] it was 0.025 µg/mL (≈ 0.0507 µM); in assay [12], 0.25 µg/mL (≈ 0.507 µM). For the same compound, the MIC in [13] was greater than 80 µg/mL.
Regarding `CC(CC1OCC(CC2OC2C(C)C(C)O)C(O)C1O)=C(C)C(=O)O` [Example 4, Sodium 4-[5S-(2S, 35-epoxy-5S-hydroxy-4S-methylhexyl)-3R,4R-dihydroxytetrahydropyran-2S-yl]-2,3-dimethylbut-2(E)-enoate], the MIC in assay [1] was greater than 80 µg/mL; in assay [2], 1.25 µg/mL; in [3], 0.25 µg/mL; in [4], 5 µg/mL; in assay [5], greater than 80 µg/mL; in [6], 1.25 µg/mL. The MIC in assay [7] was 20 µg/mL; in assay [8] it was 5 µg/mL; in [9], 0.1 µg/mL; in assay [10] it was 0.1 µg/mL; in assay [11] it was 0.05 µg/mL; in assay [12], 0.25 µg/mL. Further, the MIC in assay [13] is greater than 80 µg/mL.

The values are drawn from EP0090603A2, “Antibacterial compounds” (BEECHAM GROUP PLC, priority 1982, dated 1983).
